Laboratory results from patent US20230382886A1, “CONJUGATED TLR7 AND NOD2 AGONISTS” (UNIVERZA V LJUBLJANI, priority 2020, published 2023).

Assays:
[1] = test system: CD4 positive T-lymphocytes; test: Antigen presentation of BMDCs to CD4+ T-lymphocytes; format: cell-based, mouse; conditions: for dose dependence of BMDC antigen presentation to CD4 positive T-lymphocytes: 1 nM to 1 μM, FIG. 5; for ability to promote BMDC antigen presentation to CD4 positive T-lymphocytes (ratio of CD25 positive T-lymphocytes with low CFSE fluorescence): 100 nM, ovalbumin, FIG. 3
Method: (§1) The effect of the conjugated compounds of the invention on antigen presentation of mouse bone marrow derived dendritic cells (BMDCs) to T-lymphocytes was examined.
(§2) BMDCs were obtained by harvesting bone marrow from mouse hind legs. The harvested cells were then cultured for 10 days in the presence of granulocyte-macrophage colony-stimulating factor
(§3) (GM-CSF) to ensure differentiation into dendritic cells. BMDCs were seeded on 96 well microtiter plates at 10.000 cells per well and stimulated in duplicates with conjugated compounds and ovalbumin (50 μg/mL) at 37° C. for 20 h. After this period, the supernatants were removed and either CD4+ T-Iymphocytes or CD8+ T-Iymphocytes were added.
(§4) The compounds were prepared as follows: First, stock solutions of the conjugated compounds were prepared in DMSO at a 1 mM concentration. The working dilutions of the conjugated compounds in medium were then added directly to BMDCs to ensure final concentrations ranging from 1 nM to 1 μM.
(§5) CD4+ and CD8+ T-lymphocytes were obtained from single-cell suspensions of spleens from OT-II and OT-I transgenic mice, respectively. These express a T-cell receptor that pairs with the CD4 or CD8 co-receptors and is specific for the ovalbumin antigen. After harvesting the spleen, CD4+ or CD8+ cell fractions were enriched with MACS separation technology (Miltenyi Biotec CD4+ T Cell Isolation Kit or CD8+ T Cell Isolation Kit, respectively). T-lymphocytes were then stained with CFSE and added to BMDCs at 50.000 cells per well.
(§6) After co-culturing the BMDCs and T-lymphocytes for 72 hours at 37° C., T-lymphocyte activation was assessed with flow cytometry by measuring the expression of CD25, characteristic for activated T-lymphocytes. Concurrently, the intensity of CFSE fluorescence was measured to evaluate T-lymphocyte proliferation. […] SG48, SG144 and RH32 were the tested conjugated compounds of the invention. Medium was used as a negative control. LPS (1 μg/mL) was used as the positive control. Intermediary compound SG8 was employed as a known NOD2 agonist of the desmuramylpeptide type (Gobec et al. 2018). Intermediary compound SG43 was employed as a known TLR7 agonist of the purine type (Akinbobuyi et al. 2016). The combination of SG8 and SG43 was employed to compare the activity of conjugated compounds against an unconjugated mixture of NOD2 and TLR7 agonists.

K562 cancer cell line = test: PBMC cytotoxicity assay against K562 target cells; format: cell-based; conditions: 1 μM; control medium; FIG. 2
Method: (§7) The TLR7 and NOD2 conjugated compounds of the invention were tested for their ability to activate the cytotoxic activity of peripheral blood mononuclear cells (PBMCs) towards cancer cell lines. The main effector fraction of PBMCs in this assay are natural killer (NK) cells, which play an essential role in the innate immune system through their direct cytotoxic activity against aberrant cells, especially tumour cells and virally infected cells. The flow cytometry-based method described hereafter measures the PBMC cytotoxic activity against target cancer cell lines by co-incubating PBMCs and cancer cells, which were pre-labelled by carboxyfluorescein succinimidyl ester (CFSE) to distinguish them from effector cells. Successful activation of effector cells by the tested compounds leads to higher degree of cell death in the target cell population.
(§8) Chronic myelogenous leukaemia K562 and chronic B cell leukaemia MEC-1 cell lines were used as target cells in the assay. Both cell lines were pre-cultured for at least 10 days before the assay was performed. Immediately prior to the addition of target cells to PBMCs, target cells were stained with CFSE at 2 μM for 15 minutes at 37° C. in the dark. Cells were then washed with medium and resuspended at 200.000 cells/mL.
(§9) PBMCs were isolated from whole blood by centrifugation with the Ficoll-Paque density gradient solution. After centrifugation, PBMCs were washed twice with PBS and resuspended in medium at 4.000.000 cells/mL. To perform the assay, PBMCs were seeded on 96 well microtiter plates at 400.000 cells per well and cultured in duplicates at 37° C. for 20 h in the presence of the compounds.
(§10) The compounds were prepared as follows: First, stock solutions of the conjugated compounds were prepared in DMSO at a 1 mM concentration. […]
(§11) After incubating the PBMCs in the presence of compounds, 10.000 CFSE stained target cells were added to each well for a final 40:1 ratio of effector cells versus target cells. After 4 h of co-incubation, cells were stained with the SYTOXTM Blue (Invitrogen) nucleic acid stain and analysed with flow cytometry. […]

MEC-1 cancer cell line = test: PBMC cytotoxicity assay against MEC-1 target cells; format: cell-based; conditions: 1 μM; control medium; FIG. 1
Method: as §7, §8, §9, §10, §11

[2] = test system: CD8 positive T-lymphocytes; test: Antigen presentation of BMDCs to CD8+ T-lymphocytes; format: cell-based, mouse; conditions: for dose dependence of BMDC antigen presentation to CD8 positive T-lymphocytes: 1 nM to 1 μM, FIG. 6; for ability to promote BMDC antigen presentation to CD8 positive T-lymphocytes (ratio of CD25 positive T-lymphocytes with low CFSE fluorescence): 100 nM, ovalbumin, FIG. 4
Method: as §1, §2, §3, §4, §5, §6

| Compound | dose dependence of BMDC antigen presentation to CD4 positive T-lymphocytes [1] | ability to promote BMDC antigen presentation to CD4 positive T-lymphocytes (ratio of CD25 positive T-lymphocytes with low CFSE fluorescence) [1] | ability to activate the cytotoxic activity of PBMCs against the K562 cancer cell line (ratio against the control) (K562 cancer cell line) | ability to activate the cytotoxic activity of PBMCs against the MEC-1 cancer cell line (ratio against the control) (MEC-1 cancer cell line) | dose dependence of BMDC antigen presentation to CD8 positive T-lymphocytes [2] | ability to promote BMDC antigen presentation to CD8 positive T-lymphocytes (ratio of CD25 positive T-lymphocytes with low CFSE fluorescence) [2] |
| --- | --- | --- | --- | --- | --- | --- |
| CCCCOc1nc(N)c2nc(O)n(Cc3ccc(C(=O)NCCCCCC(=O)Oc4ccc(/C=C/C(=O)NCC(=O)N[C@H](C(=O)N[C@H](CCC(=O)OCC)C(=O)OCC)C(C)C)cc4OC)cc3)c2n1 [SG48, Diethyl ((E)-3-(4-((6-(4-((6-amino-2-butoxy-8-hydroxy-9H-purin-9-yl)methyl)benzamido)hexanoyl)-oxy)-3-methoxyphenyl)acryloyl)glycyl-L-yalyl-D-glutamate] | dose-dependent | promote BMDC antigen presentation | activate the cytotoxic activity of PBMCs | activate the cytotoxic activity of PBMCs | dose-dependent | promote BMDC antigen presentation |
| CCCCOc1nc(N)c2nc(O)n(Cc3ccc(C(=O)NCCOCCNC(=O)CC[C@@H](NC(=O)[C@@H](NC(=O)CNC(=O)/C=C/c4ccc(O)c(OC)c4)C(C)C)C(=O)OCC)cc3)c2n1 [SG144, Ethyl N5-(2-(2-(4-((6-amino-2-butoxy-8-hydroxy-9H-purin-9-yl)methyl)benzamido)ethoxy)ethyl)-N2-((E)-3-(4-hydroxy-3-methoxyphenyl)acryloyl)glycyl-L-yalyl-D-glutaminate] | dose-dependent | promote BMDC antigen presentation | activate the cytotoxic activity of PBMCs | activate the cytotoxic activity of PBMCs | dose-dependent | promote BMDC antigen presentation |
| CCCCOc1nc(N)c2nc(O)n(Cc3ccc(C(=O)NCCOCCOCCNC(=O)CC[C@@H](NC(=O)[C@@H](NC(=O)CNC(=O)/C=C/c4ccc(O)c(OC)c4)C(C)C)C(=O)OCC)cc3)c2n1 [RH32] |  | promote BMDC antigen presentation | activate the cytotoxic activity of PBMCs | activate the cytotoxic activity of PBMCs |  | promote BMDC antigen presentation |
